We go through 17 compounds from patent US9403812B2, “Triazole derivatives as Wnt signaling pathway inhibitors” (OSLO UNIVERSITY HOSPITAL, HF, priority 2010, dated 2016).

SMILES strings stand for the structures.

Data set [1] in a line: Stability in human liver microsomes. It is filed as in vitro ADME. To be noted: both sexes, pooled human liver microsomes, 0.5 mg/mL protein, 3 μM compound, pH 7.4, 37° C., NADPH, read-out: T ½ human liver microsomes. On the procedure:
Pooled human or rat liver microsomes (pooled male and female) were prepared and stored at −80° C. prior to use. […] The final incubation volume was 25 μL. A control incubation was included for each compound tested in which 0.1M phosphate buffer (pH 7.4) was added instead of NADPH (minus NADPH). Two control compounds were included with each species. All incubations were performed singularly for each test compound.
The reactions were stopped by the addition of 50 μL methanol containing internal standard at the appropriate time points. The incubation plates were centrifuged at 2,500 rpm for 20 mins at 4° C. to precipitate the protein.
Following protein precipitation, the sample supernatants were combined in cassettes of up to 4 compounds and analysed using Cyprotex generic LC-MS/MS conditions. […] The time point at which 30-50% of parent had degraded could then be investigated at 3 different levels of metabolite profiling and/or identification.
From a plot of ln peak area ratio (compound peak area/internal standard peak area) against time, the gradient of the line is determined. Subsequently, half-life and intrinsic clearance are calculated using the equations below: Elimination rate constant (k)=(−gradient)
[formula] [formula] • where V=Incubation volume (μL/mg microsomal protein).

In another data set the test system is STF/REN HEK293 cells. Nature of the data set: Wnt3a-induced ST-Luc/Renilla luciferase reporter assay in STF/REN HEK293 cells. In kind it is cell-based. To be noted: Homo sapiens, 24 hours compound in 50% Wnt3a conditioned media, average of multiple experiments. As for the experimental part:
HEK293 cells (80,000 cells per well) were seeded in 96-well plates coated with poly-L lysine. 24 hours after seeding, the cells were incubated for an additional 24 hours with various compound concentrations in 50% Wnt3a containing conditioned media (from L Wnt3a-expressing cells (ATCC)). A minimum of three replicates was used for each sample. After compound exposure, the cells were lysed and the firefly luciferase and Renilla activities were measured on a GloMax® 96 Microplate Luminometer with Dual Injectors (Promega).
XLfit (idbs) was used to determine the IC50 values in inhibition experiments. The data were fit to the following formula:
IC50: Langmuir Binding Isotherm: fit=((A+(B*x))+(((C−B)*(1−exp((−1*D)*x)))/D)) res=(y−fit)
All values shown are average values from multiple experiments.

The next data set relates to COLO205 cells. Briefly: IncuCyte cell proliferation assay, COLO205. To be noted: 0.1, 1, 5 μmol/L. It is filed as cell-based. On the procedure:
(§1) All cells were purchased from ATCC (American Type Culture Collection) and maintained according to the supplier's recommendations. Cells used were RKO, HCT-15, WiDr, HT29, DLD-1, COLO320DM and COLO205 cells. 1,000 cells were seeded in 96-well plates with the recommended media. […] All samples were assessed in a minimum of six replicates. Plates were incubated in an IncuCyte™ (Essen BioScience) inside a cell culture incubator. Images were captured every second hour to monitor cell proliferation. Mutations in the Adenomatouse Polyposis Coli (APC) gene, which occur in most colorectal cancers (CRC), lead to ineffective degradation of β-catenin and aberrant up-regulation of Wnt signaling. As a result, CRC cells may undergo cell cycle arrest as a result of antagonized canonical Wnt. Therefore, the kinetics of cell proliferation was monitored in selected Wnt responsive CRC cell lines by using an IncuCyte life tracking system.

The next data set deals with RKO cells. Briefly: IncuCyte cell proliferation assay, RKO. To be noted: RKO (Wnt-independent control, wild type APC); 0.1, 1, 5 μmol/L. In kind it is cell-based. As for the experimental part:
as §1

For another data set, the system named is DLD-1 cells. Nature of the data set: IncuCyte cell proliferation assay, DLD-1. To be noted: 0.1, 1, 5 μmol/L. In kind it is cell-based. On the procedure:
as §1

The test system of another data set is β-catenin. Nature of the data set: Immunostaining of β-catenin in SW480 cells. To be noted: 500 nmol/L, 18 hours, immunofluorescence. In kind it is cell-based. As for the experimental part: (§2) After incubation, the cells were fixed in 4% PFA in PBS for 10 minutes. Immunostaining was performed as described in standard protocols. Primary antibodies used were β-catenin (610153, BD Transduction Laboratories™) or AXIN2 (76G6, Cell Signaling Technology). Secondary antibodies used were DyLight549 (555) donkey-anti-mouse and Cy2-donkey-anti-rabbit (both Jackson ImmunoResearch, 1:1000). The samples were imaged using a Zeiss Axiovert 200M Fluorescence/Live cell Imaging Microscope at 40 times magnification. A Zeiss LSM780 at 63 times magnification was used for confocal microscopy

A further data set has as its system HCT-15 cells. Nature of the data set: IncuCyte cell proliferation assay, HCT-15. It is filed as cell-based. To be noted: 0.1, 1, 5 μmol/L. On the procedure:
as §1

For a further data set, the system named is WiDr cells. Nature of the data set: IncuCyte cell proliferation assay, WiDr. It is filed as cell-based. To be noted: 0.1, 1, 5 μmol/L. As for the experimental part:
as §1

A further data set relates to HT29 cells. Nature of the data set: IncuCyte cell proliferation assay, HT29. In kind it is cell-based. To be noted: 0.1, 1, 5 μmol/L. On the procedure:
as §1

Another data set deals with AXIN2. Nature of the data set: Immunostaining of AXIN2 in SW480 cells. It is filed as cell-based. To be noted: 0.5 μmol/L, 18 hours, confocal microscopy. As for the experimental part:
as §2

Another data set deals with COLO320DM cells. Nature of the data set: IncuCyte cell proliferation assay, COLO320DM. To be noted: 0.1, 1, 5 μmol/L. It is filed as cell-based. As for the experimental part: as §1
The next data set concerns the target T1, PARP1 (Homo sapiens, UniProt P09874).
T1 construct: purchased BPS Bioscience, Nordic Biosite 80551
Nature of the data set: Chemiluminescent Assay Kit, PARP1. In kind it is biochemical.

T1 sequence (P09874 whole entry): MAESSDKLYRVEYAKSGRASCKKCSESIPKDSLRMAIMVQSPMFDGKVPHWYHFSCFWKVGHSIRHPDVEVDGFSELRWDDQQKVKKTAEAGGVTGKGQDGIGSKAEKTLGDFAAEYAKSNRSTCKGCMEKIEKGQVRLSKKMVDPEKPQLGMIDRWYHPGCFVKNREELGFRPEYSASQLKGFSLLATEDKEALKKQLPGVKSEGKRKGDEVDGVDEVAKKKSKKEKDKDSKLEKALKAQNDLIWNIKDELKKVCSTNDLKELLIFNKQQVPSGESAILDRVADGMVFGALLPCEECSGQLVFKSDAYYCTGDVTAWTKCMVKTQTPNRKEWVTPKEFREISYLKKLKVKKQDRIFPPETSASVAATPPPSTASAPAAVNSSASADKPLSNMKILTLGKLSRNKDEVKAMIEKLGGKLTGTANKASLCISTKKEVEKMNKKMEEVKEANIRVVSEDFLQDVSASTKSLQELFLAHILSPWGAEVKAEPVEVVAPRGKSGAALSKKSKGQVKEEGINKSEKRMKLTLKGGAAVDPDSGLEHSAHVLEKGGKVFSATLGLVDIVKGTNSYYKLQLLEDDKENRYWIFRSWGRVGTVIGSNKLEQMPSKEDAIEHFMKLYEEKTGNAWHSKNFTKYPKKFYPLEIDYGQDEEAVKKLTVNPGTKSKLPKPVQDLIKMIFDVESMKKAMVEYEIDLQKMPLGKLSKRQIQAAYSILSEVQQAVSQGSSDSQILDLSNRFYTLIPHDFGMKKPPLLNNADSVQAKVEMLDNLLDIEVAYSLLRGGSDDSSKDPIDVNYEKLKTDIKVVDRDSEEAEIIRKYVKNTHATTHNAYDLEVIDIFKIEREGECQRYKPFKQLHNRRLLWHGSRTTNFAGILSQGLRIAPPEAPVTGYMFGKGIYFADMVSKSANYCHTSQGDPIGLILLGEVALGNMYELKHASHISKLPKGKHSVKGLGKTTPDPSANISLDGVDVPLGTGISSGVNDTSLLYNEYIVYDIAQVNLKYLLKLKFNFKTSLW

Broadly, the IC50 is the concentration that inhibits the measured activity by half. `COc1cc(-c2nnc(/C=C/c3nnc(-c4ccc(S(C)(=O)=O)cn4)n3-c3ccccc3Cl)o2)ccn1` [Compound (12), 2-(4-(2-chlorophenyl)-5-((E)-2-(5-(2-methoxypyridin-4-yl)-1,3,4-oxadiazol-2-yl)vinyl)-4H-1,2,4-triazol-3-yl)-5-(methylsulfonyl)pyridine]: the half-life at 3 μM in data set [1] is 37.1 min. Besides, the IC50 in the data set on STF/REN HEK293 cells was 70 nM.

Take `Oc1cc(-c2nnc(/C=C/c3nnc(-c4ccc(F)cc4)n3-c3ccccc3Cl)o2)ccn1` [(8)]: the half-life at 3 μM in data set [1] amounted to 128 min. The compound further had an IC50 in the data set on STF/REN HEK293 cells of 6300 nM.

`CS(=O)(=O)c1ccc(-c2nnc(/C=C/c3nnc(-c4ccc(C#N)cc4)o3)n2-c2ccc(OC(F)(F)F)cc2Cl)nc1` [Compound (56)] yielded an IC50 with STF/REN HEK293 cells of 390 nM.

`COc1cc(C(=O)NNC(=O)/C=C/c2nnc(-c3ccc(F)cc3)n2-c2ccccc2Cl)ccn1` [(7)] gave an IC50 with STF/REN HEK293 cells above 10000 nM.

Turning to `COc1cc(-c2nnc(/C=C/c3nnc(-c4ccncc4)n3-c3ccccc3Cl)o2)ccn1` [Compound (3), 4-(4-(2-chlorophenyl)-5-((E)-2-(5-(2-methoxypyridin-4-yl)-1,3,4-oxadiazol-2-yl)vinyl)-4H-1,2,4-triazol-3-yl)pyridine], the half-life at 3 μM in data set [1] worked out at 37.6 min. Moreover, in the data set with STF/REN HEK293 cells, inhibition was half-maximal at 190 nM (IC50).

Regarding `COc1cc(-c2nnc(/C=C/c3nnc(-c4ccc(Cl)cc4Cl)n3-c3ccccc3Cl)o2)ccn1` [Compound (1), 4-(5-((E)-2-(5-(2,4-dichlorophenyl)-4-(2-chlorophenyl)-4H-1,2,4-triazol-3-yl)vinyl)-1,3,4-oxadiazol-2-yl)-2-methoxypyridine], the half-life at 3 μM in [1] was determined as 162 min. Moreover, inhibition in the data set with STF/REN HEK293 cells was half-maximal at 940 nM (IC50).

For `COc1cc(-c2nnc(/C=C/c3nnc(-c4ccc(Cl)cn4)n3-c3ccccc3Cl)o2)ccn1` [Compound (4), 5-chloro-2-(4-(2-chlorophenyl)-5-((E)-2-(5-(2-methoxypyridin-4-yl)-1,3,4-oxadiazol-2-yl)vinyl)-4H-1,2,4-triazol-3-yl)pyridine], in [1], the half-life at 3 μM was determined as 44.9 min. The same compound had an IC50 with STF/REN HEK293 cells of 240 nM.

Take `CS(=O)(=O)c1ccc(-c2nnc(/C=C/c3nnc(-c4ccc(Cl)cc4)o3)n2-c2ccccc2Cl)nc1` [Compound (14), 2-(4-(2-chlorophenyl)-5-((E)-2-(5-(4-chlorophenyl)-1,3,4-oxadiazol-2-yl)vinyl)-4H-1,2,4-triazol-3-yl)-5-(methylsulfonyl)pyridine]: the half-life at 3 μM in data set [1] turned out to be 371 min. In addition, the 50% inhibitory concentration (IC50) in the data set with STF/REN HEK293 cells stood at 40 nM.

As for `CS(=O)(=O)c1ccc(-c2nnc(/C(F)=C(\F)c3nnc(-c4ccc(C#N)cc4)o3)n2-c2ccccc2Cl)nc1` [Compound (58), 4-(5-{2-[4-(2-Chloro-phenyl)-5-(5-methanesulfonyl-pyridin-2-yl)-4H-[1,2,4]triazol-3-yl]-1,2-difluoro-vinyl}-[1,3,4]oxadiazol-2-yl)-benzonitrile], the IC50 in the data set on STF/REN HEK293 cells is above 10000 nM.

Take `CCOc1ccc(-c2nnc(/C=C/c3nnc(-c4ccnc(OC)c4)o3)n2-c2ccccc2Cl)nc1` [Compound (13), 2-(4-(2-chlorophenyl)-5-((E)-2-(5-(2-methoxypyridin-4-yl)-1,3,4-oxadiazol-2-yl)vinyl)-4H-1,2,4-triazol-3-yl)-5-ethoxypyridine]: the half-life at 3 μM in [1] is 212 min. This compound registered an IC50 in the data set with STF/REN HEK293 cells of 110 nM.

On to `CS(=O)(=O)c1ccc(-c2nnc(C#Cc3nnc(-c4ccc(C#N)cc4)o3)n2-c2ccccc2Cl)nc1` [Compound (33), 4-{5-[4-(2-Chloro-phenyl)-5-(5-methanesulfonyl-pyridin-2-yl)-4H-[1,2,4]triazol-3-ylethynyl]-[1,3,4]oxadiazol-2-yl}-benzonitrile], for which, in the data set on STF/REN HEK293 cells, it took 3600 nM to reach half-maximal inhibition (IC50).

`CS(=O)(=O)c1ccc(-c2nnc(/C=C/c3nnc(-c4ccc(C#N)cc4)o3)n2-c2ccccc2Cl)nc1` [Compound (10), (E)-4-(5-(2-(4-(2-chlorophenyl)-5-(5-(methylsulfonyl)pyridin-2-yl)-4H-1,2,4-triazol-3-yl)vinyl)-1,3,4-oxadiazol-2-yl)benzonitrile]: the cell growth inhibition result is on record as “dose-dependent growth inhibition” in the data set on COLO205 cells; “did not” with RKO cells; “dose-dependent growth inhibition” in the data set on DLD-1 cells; “dose-dependent growth inhibition” in the data set with HCT-15 cells; “dose-dependent growth inhibition” with WiDr cells; “dose-dependent growth inhibition” with HT29 cells. Moreover, the cell growth inhibition entry in the data set with COLO320DM cells is on record as “dose-dependent growth inhibition”. For the same compound, the “nuclear β-catenin” value in the data set with β-catenin is given as “strong reduction”. Moreover, the “total β-catenin” value with β-catenin is reported as “general reduction”. The “levels of cytoplasmic AXIN2” value in the data set on AXIN2 is reported as “significantly increased”. For the same compound, the IC50 with STF/REN HEK293 cells is 50 nM; at PARP1 (in vitro, table, read-out: IC50 value, PARP), above 20000 nM. On PARP1 (at doses up to 20 μmol/L), the “inhibition of PARP1” value is listed as “no inhibition”.

The compound `N#Cc1ccc(-c2nnc(/C=C/c3nnc(-c4ccc(OCC(F)(F)F)cn4)n3-c3ccccc3Cl)o2)cc1` [Compound (57), 4-[5-(2-{4-(2-Chloro-phenyl)-5-[5-(2,2,2-trifluoro-ethoxy)-pyridin-2-yl]-4H-[1,2,4]triazol-3-yl}-vinyl)-[1,3,4]oxadiazol-2-yl]-benzonitrile] returned an IC50 with STF/REN HEK293 cells of 100 nM.

For `COc1cc(-c2nnc(/C=C/c3nnc(-c4ccc(F)cc4)n3-c3ccccc3Cl)o2)ccn1` [(6)], the half-life at 3 μM in data set [1] worked out at 48 min. Moreover, it took 1200 nM to reach half-maximal inhibition in the data set on STF/REN HEK293 cells (IC50).

As for `COc1cc(-c2nnc(/C=C/c3nnc(-c4nc(C)no4)n3-c3ccccc3Cl)o2)ccn1` [Compound (5), 4-(5-((E)-2-(4-(2-chlorophenyl)-5-(3-methyl-1,2,4-oxadiazol-5-yl)-4H-1,2,4-triazol-3-yl)vinyl)-1,3,4-oxadiazol-2-yl)-2-methoxypyridine], the half-life at 3 μM in [1] turned out to be 5.41 min. In the data set with STF/REN HEK293 cells, this compound had a 50% inhibitory concentration (IC50) above 10000 nM.

Consider `COc1cc(-c2nnc(/C=C/c3nnc(-c4ccc(S(C)(=O)=O)cc4)n3-c3ccccc3Cl)o2)ccn1` [Compound (2), 4-(5-((E)-2-(4-(2-chlorophenyl)-5-(4-(methylsulfonyl)phenyl)-4H-1,2,4-triazol-3-yl)vinyl)-1,3,4-oxadiazol-2-yl)-2-methoxypyridine], for which, in data set [1], the half-life at 3 μM came out at 224 min. The compound further displayed an IC50 in the data set with STF/REN HEK293 cells of 280 nM.

Regarding `COc1cc(-c2nnc(/C=C/c3nnc(-c4ccncn4)n3-c3ccccc3Cl)o2)ccn1` [Compound (11), 4-(4-(2-chlorophenyl)-5-((E)-2-(5-(2-methoxypyridin-4-yl)-1,3,4-oxadiazol-2-yl)vinyl)-4H-1,2,4-triazol-3-yl)pyrimidine], in data set [1], the half-life at 3 μM stood at 59.6 min. The same compound returned a half-maximal inhibitory concentration (IC50) with STF/REN HEK293 cells of 80 nM.
